{"source": "PubChem BioAssay (NCI)", "experiment_in_all_cases": "NCI-60 cell line screen, 48 h", "key": {"[1]": {"test_system": "SF-268 CNS"}, "[2]": {"test_system": "HCT-116 colon"}, "[3]": {"test_system": "HOP-62 NSCLC"}, "[4]": {"test_system": "RXF 393 renal"}, "[5]": {"test_system": "MCF7 breast"}, "[6]": {"test_system": "A498 renal"}, "[7]": {"test_system": "HL-60(TB) leukemia"}, "[8]": {"test_system": "MALME-3M melanoma"}, "[9]": {"test_system": "MDA-MB-435"}, "[10]": {"test_system": "DU-145 prostate"}, "[11]": {"test_system": "HCC-2998 colon"}, "[12]": {"test_system": "RPMI-8226 leukemia"}, "[13]": {"test_system": "OVCAR-4 ovarian"}, "[14]": {"test_system": "NCI-H23 lung"}, "[15]": {"test_system": "U251 CNS"}, "[16]": {"test_system": "A549 NSCLC"}, "[17]": {"test_system": "SF-539 CNS"}, "[18]": {"test_system": "SK-MEL-5 melanoma"}, "[19]": {"test_system": "HCT-15 colon"}, "[20]": {"test_system": "NCI/ADR-RES ovarian"}, "[21]": {"test_system": "SK-MEL-28 melanoma"}, "[22]": {"test_system": "ACHN renal"}, "[23]": {"test_system": "SK-OV-3 ovarian"}, "[24]": {"test_system": "IGROV1 ovarian"}, "[25]": {"test_system": "COLO 205 colon"}, "[26]": {"test_system": "TK-10 renal"}, "[27]": {"test_system": "T-47D breast"}}, "note": "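Method: 48-hour compound exposure of cells in 96-well plates, five concentrations, linear interpolation of endpoints. At the GI50, growth is halved. Definition used: TGI = concentration required for complete inhibition of growth.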"}
{"smiles": "O=c1ccc2nc(C(F)(F)F)nn(-c3ccccc3)c-2c1", "values": [{"measurement": "TGI", "setting": "[1]", "value": 28.9, "unit": "µM"}, {"measurement": "GI50", "setting": "[2]", "value": 1.61, "unit": "µM"}, {"measurement": "TGI", "setting": "[2]", "value": 3.15, "unit": "µM"}, {"measurement": "GI50", "setting": "[3]", "value": 7.95, "unit": "µM"}, {"measurement": "TGI", "setting": "[3]", "value": 27.7, "unit": "µM"}, {"measurement": "GI50", "setting": "[4]", "value": 1.45, "unit": "µM"}, {"measurement": "TGI", "setting": "[4]", "value": 2.8, "unit": "µM"}, {"measurement": "GI50", "setting": "[5]", "value": 0.495, "unit": "µM"}, {"measurement": "TGI", "setting": "[5]", "value": 4.07, "unit": "µM"}, {"measurement": "GI50", "setting": "[6]", "value": 14.1, "unit": "µM"}, {"measurement": "TGI", "setting": "[6]", "value": 27.2, "unit": "µM"}, {"measurement": "GI50", "setting": "[7]", "value": 1.21, "unit": "µM"}, {"measurement": "TGI", "setting": "[7]", "value": 4.31, "unit": "µM"}, {"measurement": "GI50", "setting": "[8]", "value": 1.82, "unit": "µM"}, {"measurement": "TGI", "setting": "[8]", "value": 3.3, "unit": "µM"}, {"measurement": "GI50", "setting": "[9]", "value": 4.56, "unit": "µM"}, {"measurement": "TGI", "setting": "[9]", "value": 16.4, "unit": "µM"}, {"measurement": "GI50", "setting": "[10]", "value": 1.77, "unit": "µM"}, {"measurement": "TGI", "setting": "[10]", "value": 3.17, "unit": "µM"}, {"measurement": "GI50", "setting": "[11]", "value": 15.4, "unit": "µM"}, {"measurement": "TGI", "setting": "[11]", "value": 29.7, "unit": "µM"}, {"measurement": "GI50", "setting": "[12]", "value": 4.82, "unit": "µM"}, {"measurement": "TGI", "setting": "[12]", "value": 77.5, "unit": "µM"}, {"measurement": "GI50", "setting": "[13]", "value": 1.47, "unit": "µM"}, {"measurement": "TGI", "setting": "[13]", "value": 2.83, "unit": "µM"}, {"measurement": "GI50", "setting": "[14]", "value": 5.96, "unit": "µM"}, {"measurement": "TGI", "setting": "[14]", "value": 22.2, "unit": "µM"}, {"measurement": "GI50", "setting": "[15]", "value": 13.4, "unit": "µM"}, {"measurement": "TGI", "setting": "[15]", "value": 28.6, "unit": "µM"}, {"measurement": "GI50", "setting": "[16]", "value": 19.3, "unit": "µM"}, {"measurement": "TGI", "setting": "[16]", "value": 39, "unit": "µM"}, {"measurement": "GI50", "setting": "[17]", "value": 15.8, "unit": "µM"}, {"measurement": "TGI", "setting": "[17]", "value": 29.3, "unit": "µM"}, {"measurement": "GI50", "setting": "[18]", "value": 7.8, "unit": "µM"}, {"measurement": "TGI", "setting": "[18]", "value": 21.1, "unit": "µM"}, {"measurement": "GI50", "setting": "[19]", "value": 1.45, "unit": "µM"}, {"measurement": "TGI", "setting": "[19]", "value": 3.42, "unit": "µM"}, {"measurement": "GI50", "setting": "[20]", "value": 17.1, "unit": "µM"}, {"measurement": "TGI", "setting": "[20]", "value": 64, "unit": "µM"}, {"measurement": "GI50", "setting": "[21]", "value": 1.7, "unit": "µM"}, {"measurement": "TGI", "setting": "[21]", "value": 3.26, "unit": "µM"}, {"measurement": "GI50", "setting": "[22]", "value": 1.18, "unit": "µM"}, {"measurement": "TGI", "setting": "[22]", "value": 2.45, "unit": "µM"}, {"measurement": "GI50", "setting": "[23]", "value": 15, "unit": "µM"}, {"measurement": "TGI", "setting": "[23]", "value": "> 100", "unit": "µM"}, {"measurement": "GI50", "setting": "[24]", "value": 11.9, "unit": "µM"}, {"measurement": "TGI", "setting": "[24]", "value": 25.5, "unit": "µM"}, {"measurement": "GI50", "setting": "[25]", "value": 2.32, "unit": "µM"}, {"measurement": "TGI", "setting": "[25]", "value": 5.77, "unit": "µM"}, {"measurement": "GI50", "setting": "[26]", "value": 1.62, "unit": "µM"}, {"measurement": "TGI", "setting": "[26]", "value": 3.09, "unit": "µM"}, {"measurement": "GI50", "setting": "[27]", "value": 1.69, "unit": "µM"}, {"measurement": "TGI", "setting": "[27]", "value": 6.62, "unit": "µM"}]}
